Columns and labels:
human mAChR M1 [1] = target: T1, human mAChR M1 (Homo sapiens, UniProt P11229); assay: mAChR M1 cell-based functional assay (calcium mobilization), PAM mode: increase in the EC20 acetylcholine response
T1 sequence (P11229 1-460): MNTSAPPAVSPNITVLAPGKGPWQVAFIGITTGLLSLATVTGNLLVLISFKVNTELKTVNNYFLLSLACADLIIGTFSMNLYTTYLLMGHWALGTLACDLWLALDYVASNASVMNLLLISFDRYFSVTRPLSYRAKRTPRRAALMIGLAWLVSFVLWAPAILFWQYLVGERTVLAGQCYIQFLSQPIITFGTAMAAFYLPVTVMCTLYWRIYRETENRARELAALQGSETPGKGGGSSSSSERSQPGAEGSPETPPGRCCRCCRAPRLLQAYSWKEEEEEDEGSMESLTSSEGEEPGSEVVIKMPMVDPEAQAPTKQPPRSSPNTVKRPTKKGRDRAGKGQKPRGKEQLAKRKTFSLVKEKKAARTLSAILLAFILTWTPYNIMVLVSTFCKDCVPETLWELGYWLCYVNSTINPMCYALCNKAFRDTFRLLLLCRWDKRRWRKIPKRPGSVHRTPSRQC
Summary of the method: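 CHO-K1 cells stably expressing hM1, Fluo-4 loaded, read by FDSS calcium flux at 1 Hz. Compound (11-point 1:3 CRC) added at 4 s, EC20 acetylcholine at 144 s, EC80 at 230 s. PAM activity taken as concentration-dependent increase in EC20 ACh response, fitted by four-parameter logistic for EC50/Emax.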

human mAChR M1 [2] = target: T1, human mAChR M1; assay: mAChR M1 cell-based functional assay (calcium mobilization), agonist mode: compound alone, Emax relative to acetylcholine maximum; settings: for EC50 / Agonist Activity Human M1 EC50: human mAChR M1; for Emax: relative to the maximum for acetylcholine
Summary of the method: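 CHO-K1 cells stably expressing hM1 were loaded with Fluo-4 AM, and calcium flux was read as fluorescence ratio. Compound was added alone from an 11-point 1:3 curve, and the agonist response was fitted with a four-parameter logistic. Emax is expressed relative to the acetylcholine maximum.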

Row | SMILES | EC50 (human mAChR M1 [1]) | Emax (human mAChR M1 [1]) | EC50 (human mAChR M1 [2]) | Emax (human mAChR M1 [2]) | Agonist Activity Human M1 EC50 (human mAChR M1 [2])
1 | [2H]C1([2H])c2ncccc2C(=O)N1Cc1c(F)cc(-c2ccc(C(F)(F)F)c3nn(C)cc23)cc1C1CC1 [Compound 207, 6-(2-cyclopropyl-6-fluoro-4-(2-methyl-7-(trifluoromethyl)-2H-indazol-4-yl)benzyl)-6,7-dihydro-5H-pyrrolo[3,4-b]pyridin-5-one-7,7-d2] | 673 nM | 84% | 8070 nM | 25% | –
2 | [2H]C1([2H])c2ncccc2C(=O)N1Cc1c(F)cc(-c2ccnc3nn(C)cc23)cc1C1CC1 [Compound 208, 6-(2-cyclopropyl-6-fluoro-4-(2-methyl-2H-pyrazolo[3,4-b]pyridin-4-yl)benzyl)-6,7-dihydro-5H-pyrrolo[3,4-b]pyridin-5-one-7,7-d2] | 140 nM | 88% | 1200 nM | 59% | –
3 | [2H]C1([2H])c2ncccc2C(=O)N1Cc1c(F)cc(-c2ccc(OC)c3nn(C([2H])([2H])[2H])cc23)cc1C1CC1 [Compound 209, 6-(2-cyclopropyl-6-fluoro-4-(7-methoxy-2-(methyl-d3)-2H-indazol-4-yl)benzyl)-6,7-dihydro-5H-pyrrolo[3,4-b]pyridin-5-one-7,7-d2] | 769 nM | 83% | 2580 nM | 62% | –
4 | [2H]C1([2H])c2ncccc2C(=O)N1Cc1c(F)cc(-c2cccc3nn(C)cc23)cc1OCC(C)C [Compound 210, 6-(2-fluoro-6-isobutoxy-4-(2-methyl-2H-indazol-4-yl)benzyl)-6,7-dihydro-5H-pyrrolo[3,4-b]pyridin-5-one-7,7-d2] | 865 nM | 83% | – | 14% | Inactive
5 | [2H]C1([2H])c2ncccc2C(=O)N1Cc1c(F)cc(-c2ccc3nn(C)cc3c2)cc1OCC(C)C [Compound 211, 6-(2-fluoro-6-isobutoxy-4-(2-methyl-2H-indazol-5-yl)benzyl)-6,7-dihydro-5H-pyrrolo[3,4-b]pyridin-5-one-7,7-d2] | 1290 nM | 88% | – | 3% | Inactive
6 | [2H]C1([2H])c2ncccc2C(=O)N1Cc1c(F)cc(-c2ccc(OC3CC3)c3nn(C)cc23)cc1OCC(C)C [Compound 212, 6-(4-(7-cyclopropoxy-2-methyl-2H-indazol-4-yl)-2-fluoro-6-isobutoxybenzyl)-6,7-dihydro-5H-pyrrolo[3,4-b]pyridin-5-one-7,7-d2] | 1450 nM | 82% | – | 2% | Inactive
7 | [2H]C1([2H])c2ncccc2C(=O)N1Cc1c(F)cc(-c2ccc(C)c3nn(C)cc23)cc1OCC(C)C [Compound 213, 6-(4-(2,7-dimethyl-2H-indazol-4-yl)-2-fluoro-6-isobutoxybenzyl)-6,7-dihydro-5H-pyrrolo[3,4-b]pyridin-5-one-7,7-d2] | 1520 nM | 81% | – | 3% | Inactive
8 | [2H]C1([2H])c2ncccc2C(=O)N1Cc1c(F)cc(-c2ccc(F)c3nn(C)cc23)cc1OCC(C)C [Compound 214, 6-(2-fluoro-4-(7-fluoro-2-methyl-2H-indazol-4-yl)-6-isobutoxybenzyl)-6,7-dihydro-5H-pyrrolo[3,4-b]pyridin-5-one-7,7-d2] | 1290 nM | 79% | – | 2% | Inactive
9 | [2H]C1([2H])c2ncccc2C(=O)N1Cc1c(F)cc(-c2ccc(Cl)c3nn(C)cc23)cc1OCC(C)C [Compound 215, 6-(4-(7-chloro-2-methyl-2H-indazol-4-yl)-2-fluoro-6-isobutoxybenzyl)-6,7-dihydro-5H-pyrrolo[3,4-b]pyridin-5-one-7,7-d2] | 2380 nM | 83% | – | 2% | Inactive
